Target: T1, Human AMPK α2ß2γ1 (Homo sapiens, UniProt O43741+P54646)
T1 construct: The full length cDNAs of human AMPK ß2 (NM_005399.3) and human AMPK α2 (NM_006252.3); The full length cDNAs of human AMPK ß2 (NM_005399.3); 6xHis (N); made in house; host or cells: Escherichia coli BL21 CodonPlus (DE3)-RIL
Test: Test Example 2: evaluation of an activator for AMP-activated protein kinase (AMPK), LabChip mobility shift assay with CaMKK2-phosphorylated enzyme
Assay type: biochemical
Details: for EC150 (compound concentration showing 150% relative to the control (100%)): FL-Peptide 7 substrate, 25° C., 2 hours; for Emax: relative to control (100%), read-out: Emax (maximum rate of increase in activity within the measurement range)
In short: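 E. coli-expressed His-tagged human AMPK α2β2γ1 preactivated with GST-CaMKK2 (0.2 mM ATP, 25° C, 1–1.5 h), preincubated 10 min with compound (1% DMSO), then reacted 2 h at 25° C with 3 μM FL-Peptide 7 and 0.4 mM ATP in substrate solution, pH 7.0. Mobility-shift conversion rate gives % activity increase over no-compound control.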

T1 sequence (P54646 whole entry): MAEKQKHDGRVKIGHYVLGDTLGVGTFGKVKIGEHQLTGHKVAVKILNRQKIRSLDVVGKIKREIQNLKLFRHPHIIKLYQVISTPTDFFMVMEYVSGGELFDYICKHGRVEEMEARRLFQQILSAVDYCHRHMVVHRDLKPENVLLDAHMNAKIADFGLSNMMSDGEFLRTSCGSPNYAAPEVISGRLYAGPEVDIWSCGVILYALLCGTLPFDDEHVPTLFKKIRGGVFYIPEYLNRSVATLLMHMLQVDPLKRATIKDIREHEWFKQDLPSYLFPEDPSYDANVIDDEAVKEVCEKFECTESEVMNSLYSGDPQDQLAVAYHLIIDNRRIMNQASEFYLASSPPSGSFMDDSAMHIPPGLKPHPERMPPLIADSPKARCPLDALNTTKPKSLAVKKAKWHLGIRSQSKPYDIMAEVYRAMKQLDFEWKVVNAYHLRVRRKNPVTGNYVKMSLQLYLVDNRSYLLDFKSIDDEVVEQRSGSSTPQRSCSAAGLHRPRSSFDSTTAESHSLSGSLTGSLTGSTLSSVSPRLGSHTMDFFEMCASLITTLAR
T1 sequence (O43741 whole entry): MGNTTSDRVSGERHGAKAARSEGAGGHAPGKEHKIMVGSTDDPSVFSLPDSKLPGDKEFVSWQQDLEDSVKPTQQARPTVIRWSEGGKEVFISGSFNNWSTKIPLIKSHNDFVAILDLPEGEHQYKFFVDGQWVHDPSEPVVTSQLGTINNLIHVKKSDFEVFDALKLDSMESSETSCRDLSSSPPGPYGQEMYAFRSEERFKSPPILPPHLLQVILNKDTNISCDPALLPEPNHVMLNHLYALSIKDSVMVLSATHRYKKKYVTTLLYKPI
T1 sequence (P54619 whole entry partner): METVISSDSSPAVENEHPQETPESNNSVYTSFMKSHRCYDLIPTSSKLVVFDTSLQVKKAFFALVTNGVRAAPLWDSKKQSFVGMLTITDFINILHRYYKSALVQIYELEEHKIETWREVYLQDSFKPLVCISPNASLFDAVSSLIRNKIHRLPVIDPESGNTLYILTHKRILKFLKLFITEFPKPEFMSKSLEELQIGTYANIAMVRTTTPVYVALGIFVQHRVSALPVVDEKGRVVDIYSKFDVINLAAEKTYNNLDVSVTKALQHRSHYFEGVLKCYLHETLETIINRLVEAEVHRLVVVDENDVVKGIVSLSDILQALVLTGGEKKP

Compound | EC150 (compound concentration showing 150% relative to the control (100%)) [nM] | Emax [%]
Cn1ccc(-c2cc(F)c3c(c2)CC[C@@H]3Nc2nc3nc(O[C@@H]4CO[C@H]5[C@@H]4OC[C@H]5O)[nH]c3cc2Cl)n1 [Compound I-2-70] | 5.2 | 583
CCOc1cc(F)c2c(c1)CCC2Nc1nc2nc(O[C@@H]3CO[C@H]4[C@@H]3OC[C@H]4O)[nH]c2cc1Cl (stereo partly drawn) [Compound I-1-90] | 11 | 382
OCCCOc1cc(F)c2c(c1)CCC2Nc1nc2nc(O[C@@H]3CO[C@H]4[C@@H]3OC[C@H]4O)[nH]c2cc1Cl (stereo partly drawn) [Compound I-1-81] | 1.6 | 387
O[C@@H]1CO[C@H]2[C@@H]1OC[C@H]2Oc1nc2nc(NC3CCc4cc(OCCN5CCCC5)cc(F)c43)c(Cl)cc2[nH]1 (stereo partly drawn) [Compound I-1-97] | 2.1 | 433
Cn1cc(-c2cnc3c(c2)CCC3Oc2nc3nc(O[C@@H]4CO[C@H]5[C@@H]4OC[C@H]5O)[nH]c3cc2Cl)cn1 (stereo partly drawn) [Compound I-1-15] | 10 | 388
O[C@@H]1CO[C@H]2[C@@H]1OC[C@H]2Oc1nc2nc(NC3CCc4cc(OCCOC5CCCC5)cc(F)c43)c(Cl)cc2[nH]1 (stereo partly drawn) [Compound I-2-42] | 9.1 | 600
COCCCOc1cc(F)c2c(c1)CCC2Nc1nc2nc(O[C@@H]3CO[C@H]4[C@@H]3OC[C@H]4O)[nH]c2cc1Cl (stereo partly drawn) [Compound I-2-52] | 3.7 | 629
COCOCCOc1cc(F)c2c(c1)CCC2Nc1nc2nc(O[C@@H]3CO[C@H]4[C@@H]3OC[C@H]4O)[nH]c2cc1Cl (stereo partly drawn) [Compound I-2-44] | 3.8 | 595
O=C(NCCOc1cc(F)c2c(c1)CCC2Nc1nc2nc(O[C@@H]3CO[C@H]4[C@@H]3OC[C@H]4O)[nH]c2cc1Cl)C1CCC1 (stereo partly drawn) [Compound I-2-34] | 6.6 | 719
O[C@@H]1CO[C@H]2[C@@H]1OC[C@H]2Oc1nc2nc(NC3CCc4cc(OCF)cc(F)c43)c(Cl)cc2[nH]1 (stereo partly drawn) [Compound I-2-72] | 1.8 | 592
COCCCc1cnc2c(c1)CCC2Nc1nc2nc(O[C@@H]3CO[C@H]4[C@@H]3OC[C@H]4O)[nH]c2cc1Cl (single isomer, unassigned) [Compound I-1-10] | 8.4 | 608
CCOCCOc1cc(F)c2c(c1)CC[C@@H]2Nc1nc2nc(O[C@@H]3CO[C@H]4[C@@H]3OC[C@H]4O)[nH]c2cc1Cl [Compound I-1-95] | 1.3 | 424
CC(C)(O)C#Cc1cc(F)c2c(c1)CC[C@@H]2Nc1nc2nc(O[C@@H]3CO[C@H]4[C@@H]3OC[C@H]4O)[nH]c2cc1Cl [Compound I-2-77] | 3.8 | 650
OC1CC=C(c2cc(F)c3c(c2)CCC3Nc2nc3nc(O[C@@H]4CO[C@H]5[C@@H]4OC[C@H]5O)[nH]c3cc2Cl)CC1 (stereo partly drawn) [Compound I-2-38] | 3.1 | 725
CC(C)(O)COc1cc(F)c2c(c1)CCC2Nc1nc2nc(O[C@@H]3CO[C@H]4[C@@H]3OC[C@H]4O)[nH]c2cc1Cl (stereo partly drawn) [Compound I-2-09] | 3.9 | 633
Cn1nccc1-c1cc(F)c2c(c1)CCC2Oc1nc2nc(O[C@@H]3CO[C@H]4[C@@H]3OC[C@H]4O)[nH]c2cc1Cl (stereo partly drawn) [Compound I-1-76] | 15 | 378
Cn1ccc(-c2cc(F)c3c(c2)CCC3Nc2nc3nc(O[C@@H]4CO[C@H]5[C@@H]4OC[C@H]5O)[nH]c3cc2Cl)cc1=O (stereo partly drawn) [Compound I-1-39] | 2.9 | 384
O[C@@H]1CO[C@H]2[C@@H]1OC[C@H]2Oc1nc2nc(NC3CCc4cc(OCC5CCO5)cc(F)c43)c(Cl)cc2[nH]1 (stereo partly drawn) [Compound I-1-83] | 2.2 | 414
